From patent US5464865A, “4-aryl- and 4-arylthio-5-hydroxy-2(5H)-furanones as inhibitors of phospholipase A2” (Ortho Pharmaceutical Corporation, priority 1993, dated 1995)
pIC50: −log10 of the molar value.

Target: T1, human platelet phospholipase A2 (Homo sapiens, UniProt P14555)
T1 construct: a preparation of human platelet phospholipase A2; from tissue; host or cells: human platelets
T1 sequence (P14555 21-144): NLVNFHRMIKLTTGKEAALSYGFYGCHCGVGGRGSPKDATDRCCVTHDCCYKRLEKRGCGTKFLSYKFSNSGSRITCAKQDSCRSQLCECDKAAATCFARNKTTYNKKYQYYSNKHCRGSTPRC
Test: Inhibition of human platelet phospholipase A2 (14C-oleate E. coli substrate)
Type: biochemical
Settings: for inhibition at 50 µM: read-out: Inhibition of PLA2, % Inhibition @ 50 μM; for inhibition at 10 µM: @ 10 μM (values marked *), read-out: Inhibition of PLA2, % Inhibition @ *10 μM; for pIC50: pH 7.0, 37°, 60 min incubation, read-out: Inhibition of PLA2, IC50
Protocol: The activity of the compounds of the invention against phospholipase A2 is determined using a preparation of human platelet phospholipase A2 with a specific activity of 180 nmol/min/mg as the enzyme source. Polypropylene 15-ml test tubes are utilized as the reaction vessels. All drug samples are run in duplicate, with "blank" and "control" (no test compound) groups run in triplicate. […] Test compounds are dissolved in DMSO, and diluted to a projected final concentration of either 50 or 10 μM in 550 μl HEPES buffer at pH 7.0. A 1:7 dilution of human platelet PLA2 in HEPES buffer (5 μl) is added to each test tube, followed by gentle vortexing for 3 seconds. The reaction tubes containing drug, buffer, and enzyme are preincubated for 15 min at 37°, followed by the addition of 25 μl of ^14 C-oleate E. coli substrate. Details regarding this substrate may be found in a publication by S. Ghosh and R. Franson, Biochem. Cell. Biol., 70, 43 (1992), and references therein.
The tubes are immediately vortexed at moderate speed for 3 sec, followed by a 60 min incubation at 37° in a shaking water bath. The reaction is stopped by the addition of 3 ml of a 1:2 chloroform-methanol mixture. Additional water (1.5 ml) and chloroform (1.0 ml) are added, followed by vortexing. The lower phase is removed with a polypropylene transfer pipette, and transferred to a 13×100 mm polypropylene test tube. The organic solvent is evaporated with a stream of nitrogen, the residue is redissolved in 30 μl of a 9:1 chloroform-methanol mixture, and the solution is spotted on a channeled polyester-backed silica gel TLC plate, such as those available under the trade name PE SIL G available from Whatman Inc, Clifton, N.J.
The plate is developed with an 80:20:1 mixture of petroleum ether-diethyl ether-acetic acid. […] The plate is scored above the origin, cut along the score with scissors, and the reactant (origin) and product portions of each channel are put into separate scintillation vials. To each vial is added a scintillation cocktail (15 ml), preferably that sold under the trademark ECOLUME by ICN Biomedicals, Irvine Calif. The vials are shaken vigorously for 5 sec, and the radioactive ^14 C in each vial is measured with a scintillation counter, which provides the counts-per-minute (cpm) for each sample. The obtained cpm values are corrected for the "blank" values.
The percentage of phospholipid hydrolyzed is calculated by the formula:
Phospholipid converted=100×cpm products / (cpm products+cpm
The inhibition of phospholipase A2 by the test compounds is expressed as a percent inhibition relative to the control group:
% Inhibition=[…]

Compound	inhibition at 50 µM [%]	inhibition at 10 µM [%]	pIC50
O=C1C=C(c2ccc(CC(O)COc3ccc4ccccc4c3)cc2)C(O)O1 (racemic) [Example 51, 5-Hydroxy-4-(4-(2-hydroxy-3-(2-naphthyloxy)propyl)phenyl)-2(5H)-furanone]	30		
O=C1C=C(c2ccc(/C=C\c3ccccc3)cc2)C(O)O1 (single isomer, unassigned) [Example 33, (Z)-5-Hydroxy-4-(4-(2-phenylethenyl)phenyl)-2(5H)-furanone]	23		
CCCCCCCCOc1ccc(C2=CC(=O)OC2O)c(Cl)c1 (centres unmarked) [Example 2, 5-Hydroxy-4-(2-chloro-4-octyloxyphenyl)-2(5H)furanone]		69	5.12
CCCCCCCCOc1cccc(C2=CC(=O)OC2O)c1 (centres unmarked) [Example 3, 5-Hydroxy-4-(3-octyloxyphenyl)-2(5H)furanone]	39		
CCCCCCCCOc1ccc(C2=CC(=O)OC2O)cc1Cl (centres unmarked) [Example 4, 5-Hydroxy-4-(3-chloro-4-octyloxyphenyl)-2(5H)furanone]		71	5.27
CCCCCCCCOc1ccc(C2=CC(=O)OC2O)c(OC)c1 (centres unmarked) [Example 5, 5-Hydroxy-4-(2-methoxy-4-octyloxyphenyl)-2(5H)furanone]		58	
CCCCCCCCOc1ccc(C2=CC(=O)OC2O)cc1OC (centres unmarked) [Example 6, 5-Hydroxy-4-(3-methoxy-4-octyloxyphenyl)-2(5H)furanone]		27	
CCCCCCCCOc1ccc(C2=CC(=O)OC2O)cc1[N+](=O)[O-] (centres unmarked) [Example 7, 5-Hydroxy-4-(3-nitro-4-octyloxyphenyl)-2(5H)furanone]		67	5.03
CCCCCCCCOc1ccccc1C1=CC(=O)OC1O (centres unmarked) [Example 8, 5-Hydroxy-4-(2-octyloxyphenyl)-2(5H)furanone]		21	
CCCCCCCCOc1ccc(C2=CC(=O)OC2O)cc1NC(C)=O (centres unmarked) [Example 9, 5-Hydroxy-4-(3-acetamido-4-octyloxyphenyl)-2(5H)furanone]		7	
O=C1C=C(c2ccc(OCCCc3ccccc3)cc2)C(O)O1 (centres unmarked) [Example 10, 5-Hydroxy-4-[4-(3-phenylpropyloxy)phenyl]-2(5H)furanone]	17		
C=CCOc1cccc(C2=CC(=O)OC2O)c1 (centres unmarked) [Example 11, 5-Hydroxy-4-[(3-allyloxy)phenyl]-2(5H)furanone]	0		
CCCCCCCC(=O)Nc1cccc(C2=CC(=O)OC2O)c1 (centres unmarked) [Example 20, 5-Hydroxy-4-(3-(1-oxooctylamino)phenyl)-2(5H)furanone]	0		
CCCCCCCC(=O)Nc1ccc(C2=CC(=O)OC2O)cc1 (centres unmarked) [Example 21, 5-Hydroxy-4-(4-(1-oxooctylamino)phenyl)-2(5H)furanone]	0		
CCCCCCCCS(=O)(=O)c1ccc(C2=CC(=O)OC2O)cc1 (centres unmarked) [Example 22, 5-Hydroxy-4-(4-octylsulfonyl)phenyl-2(5H)furanone]		49	
CCCCSc1ccc(C2=CC(=O)OC2O)cc1 (centres unmarked) [Example 24, 5-Hydroxy-4-(4-(butylthio)phenyl)-2(5H)furanone]	0		
CCCCCCCCN(C(C)=O)c1ccc(C2=CC(=O)OC2O)cc1 (centres unmarked) [Example 25, 5-Hydroxy-4-(4-(N-acetyl-N-octylamino)phenyl)-2(5H)furanone]		40	
CC1=C(C/C=C(\C)CCCOc2ccc(C3=CC(=O)OC3O)cc2)C(C)(C)CCC1 (centres unmarked) [Example 26, (E)-5-Hydroxy-4-(4-(4-methyl-6-(2,6,6-trimethyl-1-cyclohexen-1-yl)-4-hexenyloxy)phenyl)-2(5H)-furanone]		92	
O=C1C=C(c2ccc(C(=O)c3ccc4ccccc4c3)cc2)C(O)O1 (centres unmarked) [Example 29, 5-Hydroxy-4-(4-(2-naphthoyl)phenyl)-2(5H)-furanone]	59		4.30
O=C1C=C(c2ccc(C(=O)c3ccccc3F)cc2)C(O)O1 (centres unmarked) [Example 31, 5-Hydroxy-4-(4-(2-fluorobenzoyl)phenyl)-2(5H)-furanone]	6		

Compound	inhibition at 50 µM [%]	inhibition at 10 µM [%]	pIC50
CCCCCCCC(=O)c1ccc(C2=CC(=O)OC2O)cc1 (centres unmarked) [Example 32, 5-Hydroxy-4-(4-octanoylphenyl)-2(5H)-furanone]	55		
CCCCCCCCNS(=O)(=O)c1ccc(C2=CC(=O)OC2O)cc1 (centres unmarked) [Example 45, 5-Hydroxy-4-(4-(octylaminosulfonyl)phenyl)-2(5H)-furanone]	13		
O=C1C=C(c2ccc(OS(=O)(=O)C(F)(F)F)cc2)C(O)O1 (centres unmarked) [Example 46, 5-Hydroxy-4-(4-(trifluoromethanesulfonoxy)phenyl)-2(5H)-furanone]	0		
CC(C)c1cc(C2=CC(=O)OC2O)cc(C(C)C)c1O (centres unmarked) [Example 47, 5-Hydroxy-4-(3,5-bis(1-methylethyl)-4-hydroxyphenyl)-2(5H)-furanone]		2	
COc1ccc(CCNC(=O)c2ccc(C3=CC(=O)OC3O)cc2)cc1OC (centres unmarked) [Example 48, 5-Hydroxy-4-(4-((2-(3,4-dimethoxyphenyl)ethyl)aminocarbonyl)phenyl)-2(5H)-furanone]	0		
O=C1C=C(c2ccc(Cc3ccccc3)cc2)C(O)O1 (centres unmarked) [Example 49, 5-Hydroxy-4-(4-(phenylmethyl)phenyl)-2(5H)-furanone]	5		
O=C1C=C(c2ccc(Oc3ccc4ccccc4c3)cc2)C(O)O1 (centres unmarked) [Example 50, 5-Hydroxy-4-(4-(2-naphthyloxy)phenyl)-2(5H)-furanone]	52		4.30
O=C1C=C(c2ccc(COc3ccc4ccccc4c3)cc2)C(O)O1 (centres unmarked) [Example 52, 5-Hydroxy-4-(4-(2-naphthyloxymethyl)phenyl)-2(5H)-furanone]	51		4.30
CC(C)(C)C#Cc1ccc(C2=CC(=O)OC2O)cc1 (centres unmarked) [Example 53, 5-Hydroxy-4-(4-(3,3-dimethyl-1-butynyl)phenyl)-2(5H)-furanone]	53		4.38
O=C1C=C(c2ccc(C#Cc3ccc4ccccc4c3)cc2)C(O)O1 (centres unmarked) [Example 56, 5-Hydroxy-4-(4-(2-(2-naphthyl)ethynyl)phenyl)-2(5H)-furanone]	59		
O=C1C=C(c2ccc(C#Cc3cccc4ccccc34)cc2)C(O)O1 (centres unmarked) [Example 57, 5-Hydroxy-4-(4-(2-(1-naphthyl)ethynyl)phenyl)-2(5H)-furanone]	69		5.08
O=C1C=C(c2ccc(C#Cc3ccc(C(F)(F)F)cc3)cc2)C(O)O1 (centres unmarked) [Example 58, 5-Hydroxy-4-(4-(2-(4-(trifluoromethyl)phenyl)ethynyl)phenyl)-2(5H)-furanone]		24	
O=C1C=C(c2ccc(C#Cc3cccc([N+](=O)[O-])c3)cc2)C(O)O1 (centres unmarked) [Example 59, 5-Hydroxy-4-(4-(2-(3-nitrophenyl)ethynyl)phenyl)-2(5H)-furanone]		6	
O=C1C=C(c2ccc(C#Cc3ccc([N+](=O)[O-])cc3)cc2)C(O)O1 (centres unmarked) [Example 60, 5-Hydroxy-4-(4-(2-(4-nitrophenyl)ethynyl)phenyl)-2(5H)-furanone]		11	
COc1ccc(C#Cc2ccc(C3=CC(=O)OC3O)cc2)cc1 (centres unmarked) [Example 61, 5-Hydroxy-4-(4-(2-(4-methoxyphenyl)ethynyl)phenyl)-2(5H)-furanone]	33		
O=C1C=C(c2ccc(C#Cc3cc4ccccc4s3)cc2)C(O)O1 (centres unmarked) [Example 62]		33	
O=C1C=C(c2cccc(C#Cc3ccccc3)c2)C(O)O1 (centres unmarked) [Example 63, 5-Hydroxy-4-(3-(2-phenylethynyl)phenyl)-2(5H)-furanone]		45	
CCCCCCCCCCCCCOc1ccc(SC2=CC(=O)OC2O)cc1 (centres unmarked) [Example 65, 5-Hydroxy-4-(4-(tridecyloxy)phenylthio)-2(5H)-furanone]		98	
CCCCCOc1ccc(SC2=CC(=O)OC2O)cc1 (centres unmarked) [Example 66, 5-Hydroxy-4-(4-(pentyloxy)phenylthio)-2(5H)-furanone]		48	
